Patent US20260308109A1 (priority 2022, published 2026)
Read-outs that look alike come from different tables or passages of the source.

Assays:
5-HT2A [1] = target: T1, 5-HT2A (Homo sapiens, UniProt P28223); assay: cell-based; type: cell-based; design: expressed in transfected cells; host or cells: HEK293; Emax: dose or concentration left out as unconfirmed
5-HT2B [2] = target: T2, 5-HT2B (Homo sapiens, UniProt P41595); assay: cell-based; type: cell-based; design: expressed in transfected cells; host or cells: HEK293; Emax: dose or concentration left out as unconfirmed
T2 sequence (P41595 whole entry): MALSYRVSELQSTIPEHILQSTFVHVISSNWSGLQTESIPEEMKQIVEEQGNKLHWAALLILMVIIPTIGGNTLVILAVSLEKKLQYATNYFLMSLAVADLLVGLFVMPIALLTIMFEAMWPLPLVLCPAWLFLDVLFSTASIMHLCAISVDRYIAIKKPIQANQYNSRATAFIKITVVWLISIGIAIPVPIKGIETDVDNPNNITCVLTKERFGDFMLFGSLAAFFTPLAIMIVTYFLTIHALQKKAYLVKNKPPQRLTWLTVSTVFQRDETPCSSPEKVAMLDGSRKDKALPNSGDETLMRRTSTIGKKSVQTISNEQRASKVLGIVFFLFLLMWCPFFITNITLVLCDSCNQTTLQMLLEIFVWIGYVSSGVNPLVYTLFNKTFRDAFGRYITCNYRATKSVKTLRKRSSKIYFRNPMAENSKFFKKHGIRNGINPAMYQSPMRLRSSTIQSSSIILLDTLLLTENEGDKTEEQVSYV

5-HT2C [3] = target: T3, 5-HT2C (Homo sapiens, UniProt P28335); assay: cell-based; design: expressed in transfected cells; host or cells: HEK293; Emax: dose or concentration left out as unconfirmed
T3 sequence (P28335 33-458): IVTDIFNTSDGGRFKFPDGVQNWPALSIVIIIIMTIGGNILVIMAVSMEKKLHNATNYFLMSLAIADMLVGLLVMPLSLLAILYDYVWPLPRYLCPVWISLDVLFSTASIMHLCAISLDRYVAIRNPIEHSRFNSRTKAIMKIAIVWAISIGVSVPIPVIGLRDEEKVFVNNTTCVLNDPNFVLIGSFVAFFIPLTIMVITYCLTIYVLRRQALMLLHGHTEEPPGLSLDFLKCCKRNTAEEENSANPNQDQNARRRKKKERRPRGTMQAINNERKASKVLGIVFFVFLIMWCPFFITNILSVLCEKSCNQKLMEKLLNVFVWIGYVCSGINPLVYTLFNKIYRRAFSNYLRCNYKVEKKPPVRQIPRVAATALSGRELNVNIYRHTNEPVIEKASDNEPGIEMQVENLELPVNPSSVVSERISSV

5-HT2A [4] = target: T1, 5-HT2A; assay: biochemical; type: binding; design: expressed in transfected cells; host or cells: HEK293 (membranes)
5-HT2B [5] = target: T2, 5-HT2B; assay: In vitro receptor binding ([3H]-LSD), 5-HT2B; design: expressed in transfected cells; host or cells: HEK293 (membranes); conditions: for Binding ([3H]-LSD) % Inh: 5-HT2B, HEK293 membrane, radioligand 3H-LSD; for affinity at 5-HT2B: in words
5-HT2C [6] = target: T3, 5-HT2C; assay: In vitro receptor binding ([3H]-LSD), 5-HT2C; design: expressed in transfected cells; host or cells: HEK293 (membranes); conditions: for Binding ([3H]-LSD) % Inh: 5-HT2C, HEK293 membrane, radioligand 3H-LSD; for affinity at 5-HT2C: in words; for affinity selectivity for 5-HT2C over 5-HT2A: ratio of Ki
[7] = tested on: TNF-α induced inflammation; conditions: Yu et al. 2008; cited from earlier work
5-HT2A receptor = conditions: Flanagan et al. 2020; cited from earlier work

T1 sequence (P28223 whole entry): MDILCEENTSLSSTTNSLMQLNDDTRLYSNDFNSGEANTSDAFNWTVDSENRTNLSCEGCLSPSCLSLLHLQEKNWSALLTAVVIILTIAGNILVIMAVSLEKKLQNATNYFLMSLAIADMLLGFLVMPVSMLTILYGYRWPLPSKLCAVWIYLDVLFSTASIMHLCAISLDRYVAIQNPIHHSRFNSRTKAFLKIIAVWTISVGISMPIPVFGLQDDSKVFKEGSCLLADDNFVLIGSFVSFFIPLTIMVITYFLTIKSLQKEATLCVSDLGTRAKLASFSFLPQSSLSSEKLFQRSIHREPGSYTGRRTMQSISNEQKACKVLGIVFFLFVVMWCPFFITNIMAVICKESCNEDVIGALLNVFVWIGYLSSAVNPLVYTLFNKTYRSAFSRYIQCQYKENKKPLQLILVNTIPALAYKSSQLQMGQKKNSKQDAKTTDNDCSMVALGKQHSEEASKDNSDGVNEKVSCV

| SMILES | Bottom (5-HT2A [1]) | HillSlope (5-HT2A [1]) | functional selectivity for 5-HT2A over 5-HT2C (5-HT2A [1]) | EC50 (5-HT2A [1]; EC50) | Emax (5-HT2A [1]; HEK293, read-out: IP-One % MAX) | EC50 (5-HT2A [1]; IP-One EC50) | Emax (5-HT2A [1]; read-out: Top) | Bottom (5-HT2B [2]) | HillSlope (5-HT2B [2]) | functional activity at 5-HT2B (5-HT2B [2]) | EC50 (5-HT2B [2]; EC50) | Emax (5-HT2B [2]; HEK293, read-out: IP-One % MAX) | EC50 (5-HT2B [2]; IP-One EC50) | Emax (5-HT2B [2]; read-out: Top) | Bottom (5-HT2C [3]) | HillSlope (5-HT2C [3]) | EC50 (5-HT2C [3]; EC50) | Emax (5-HT2C [3]; HEK293, read-out: IP-One % MAX) | EC50 (5-HT2C [3]; IP-One EC50) | Emax (5-HT2C [3]; read-out: Top) | further results |
| --- | --- | --- | --- | --- | --- | --- | --- | --- | --- | --- | --- | --- | --- | --- | --- | --- | --- | --- | --- | --- | --- |
| COc1cc(I)c(OC)c2c1C(CN)C2 (stereo not drawn) [Compound 2, (3-iodo-2,5-dimethoxybicyclo[4.2.0]octa-1,3,5-trien-7-yl)methanamine] | 5.304 % of control | 1.338 | approximately 4 fold | 10.1 nM | 127% | 10 nM | 124% | 3.780 % of control | 1.531 | minimal functional activity | 89.1 nM | 49% | > 300 nM | 56.2% | 3.427 % of control | 1.279 | 58 nM | 122% | 41 nM | 136% | Binding ([3H]-LSD) % Inh (5-HT2A [4]): 2A: 17 nM (96%); Ki (5-HT2A [4]): 17 nM; affinity at 5-HT2A (5-HT2A [4]): low nanomolar affinity; affinity selectivity for 5-HT2A over 5-HT2B (5-HT2A [4]): approximately 1.6 fold; Ki (5-HT2B [5]): 28 nM; Binding ([3H]-LSD) % Inh (5-HT2B [5]): 77%; affinity at 5-HT2B (5-HT2B [5]): low nanomolar affinity; Ki (5-HT2C [6]): 3 nM; Binding ([3H]-LSD) % Inh (5-HT2C [6]): 96%; affinity at 5-HT2C (5-HT2C [6]): low nanomolar affinity; affinity selectivity for 5-HT2C over 5-HT2A (5-HT2C [6]): approximately 6 fold |
| COc1cc(Br)c(OC)c2c1[C@H](CN)C2 [Compound 2C-BCB] |  |  |  |  |  |  |  |  |  |  |  |  |  |  |  |  |  |  |  |  | effect on TNF-α induced inflammation [7]: same effect, albeit slightly less potent |
| COc1ccc(OC)c(CCN)c1 [Compound 2C-H, 2,5-dimethoxyphenethylamine] |  |  |  |  |  |  |  |  |  |  |  |  |  |  |  |  |  |  |  |  | anti-inflammatory pharmacophore (5-HT2A receptor): primary pharmacophore for anti-inflammatory phenethylamine 5-HT2A receptor agonists |
| CCc1cc(OC)c2c(c1OC)CC2CN (stereo not drawn) [Compound 4, (3-ethyl-2,5-dimethoxybicyclo[4.2.0]octa-1,3,5-trien-7-yl)methanamine] | −0.4425 % of control | 1.033 | approximately 2.75 fold | 3.77 nM | 114% | 4 nM | 108% | −0.2984 % of control | 1.088 | significant functional activity | 27.4 nM | 70% | 70 nM | 72.8% | 1.236 % of control | 1.410 | 10.8 nM | 104% | 11 nM | 102% | functional selectivity for 5-HT2A over 5-HT2B (5-HT2A [1]): approximately 17.5 fold; Binding ([3H]-LSD) % Inh (5-HT2A [4]): 2A: 26 nM (90%); Ki (5-HT2A [4]): 26 nM; affinity at 5-HT2A (5-HT2A [4]): low nanomolar affinity; affinity selectivity for 5-HT2A over 5-HT2B (5-HT2A [4]): approximately 1.6 fold; Ki (5-HT2B [5]): 43 nM; Binding ([3H]-LSD) % Inh (5-HT2B [5]): 73%; affinity at 5-HT2B (5-HT2B [5]): low nanomolar affinity; Ki (5-HT2C [6]): 4 nM; Binding ([3H]-LSD) % Inh (5-HT2C [6]): 89%; affinity at 5-HT2C (5-HT2C [6]): low nanomolar affinity; affinity selectivity for 5-HT2C over 5-HT2A (5-HT2C [6]): approximately 6.5 fold |
| COc1cc(CC(C)C)c(OC)c2c1C(CN)C2 (stereo not drawn) [Compound 8, (3-isobutyl-2,5-dimethoxybicyclo[4.2.0]octa-1,3,5-trien-7-yl)methanamine] | 2.988 % of control | 1.426 | approximately 4.5 fold | 2.4 nM | 113% | 2 nM | 120% | −0.5387 % of control | 0.5893 | moderate functional activity | 261000 nM | 51% | 297 nM | 51.2% | 2.175 % of control | 1.285 | 8.73 nM | 117% | 9 nM | 120% | functional selectivity for 5-HT2A over 5-HT2B (5-HT2A [1]): approximately 148.5 fold; Binding ([3H]-LSD) % Inh (5-HT2A [4]): 2A: 133 nM (65%); Ki (5-HT2A [4]): 133 nM; Ki (5-HT2B [5]): > 95 nM; Binding ([3H]-LSD) % Inh (5-HT2B [5]): 29%; Ki (5-HT2C [6]): 4 nM; Binding ([3H]-LSD) % Inh (5-HT2C [6]): 93%; affinity at 5-HT2C (5-HT2C [6]): low nanomolar affinity; affinity selectivity for 5-HT2C over 5-HT2A (5-HT2C [6]): approximately 33 fold |
| CC1CC(C)N1C(=O)[C@@H]1C=C2c3cccc4[nH]cc(c34)C[C@H]2N(C)C1 (stereo partly drawn) [LA-SS-Az, lysergic acid 2,4-dimethylazetidide] |  |  |  |  |  |  |  |  |  |  |  |  |  |  |  |  |  |  |  |  | effect on TNF-α induced inflammation [7]: same effect, albeit slightly less potent |
| CCN(CC)C(=O)[C@@H]1C=C2c3cccc4[nH]cc(c34)C[C@H]2N(C)C1 [LSD, lysergic acid diethylamide] |  |  |  |  |  |  |  |  |  |  |  |  |  |  |  |  |  |  |  |  | effect on TNF-α induced inflammation [7]: same effect, albeit slightly less potent |
